We go through 15 compounds from US20080306044A1, “SPIROBENZOAZEPANES AS VASOPRESSIN ANTAGONISTS” (priority 2007, published 2008).

Assay [1] concerns the target T1, human V1a receptor (Homo sapiens, UniProt P37288).
T1 construct: expressed in transfected cells
In words: In-vitro binding assay (3H-arginine-8-vasopressin), V1a. The conditions noted are these: for IC50: membrane containing human V1a receptor, 3H-arginine-8-vasopressin 0.65-0.75 nM. Here is the method:
(§1) Assay buffer is 50 mM Tris-Cl, 5 mM MgCl2, 0.1% BSA (pH 7.5) containing 5 μg/mL of aprotinin, leupeptin, pepstatin, 50 μg/mL bacitracin, and 1 mM Pefabloc (4-(2-aminoethyl)-benzenesulfonyl fluoride, hydrochloride manufactured by Roche Diagnostics Corporation, Indianapolis, Ind. and distributed by Boehringer Mannheim). H3 vasopressin is ^3H-arginine-8-vasopressin (NEN Life Sciences, Boston, Mass.; 68.5 Ci/mmol, final concentration in assay is 0.65-0.75 nM). Into the wells of a 96-well round bottom polypropylene plates are added buffer, test compound, membrane (containing human V1a or V2 receptor), and H3 vasopressin. The reaction plates are allowed to sit at room temperature for one hour. The samples are filtered through Unifilter GF/C plates (PerkinElmer Life Sciences, Boston, Mass.) presoaked in 0.3 polyethyleneimine. The plates are washed 5 times with cold physiological saline containing 0.05% Tween 20. After drying, the bottom of the filter plates are sealed and 0.025 mL of Microscint-20 (Packard Instrument Co, Meriden, Conn.) is added to each filter. The top of the plate is sealed, and the plate is counted. Non-specific binding is determined by the addition of 1.25 μM arginine-8-vasopressin in those wells.
(§2) The % inhibition for the test results was calculated according to the formula: […]
Where an IC50 value was not obtained, the percent inhibition values are shown in parentheses (*) and were obtained at a test concentration of 0.2 μM.

In assay [2] the target is T2, human V2 receptor (Homo sapiens, UniProt P30518). In words: In-vitro binding assay (3H-arginine-8-vasopressin), V2. The conditions noted are these: for IC50: membrane containing human V2 receptor, 3H-arginine-8-vasopressin 0.65-0.75 nM; for inhibition at 0.2 µM: test concentration of 0.2 μM, read-out: V2 binding percent inhibition (in parentheses, where an IC50 value was not obtained). The procedure: as §1, with “H3 vasopressin is ^3H-arginine-8-vasopressin (NEN Life Sciences, Boston, Mass.; 68.5 Ci/mmol, final concentration in assay is 0.65-0.75 nM).” left out, “counted.” for “counted. Non-specific binding is determined by the addition of 1.25 μM arginine-8-vasopressin in those wells.”
T2 sequence (P30518 whole entry): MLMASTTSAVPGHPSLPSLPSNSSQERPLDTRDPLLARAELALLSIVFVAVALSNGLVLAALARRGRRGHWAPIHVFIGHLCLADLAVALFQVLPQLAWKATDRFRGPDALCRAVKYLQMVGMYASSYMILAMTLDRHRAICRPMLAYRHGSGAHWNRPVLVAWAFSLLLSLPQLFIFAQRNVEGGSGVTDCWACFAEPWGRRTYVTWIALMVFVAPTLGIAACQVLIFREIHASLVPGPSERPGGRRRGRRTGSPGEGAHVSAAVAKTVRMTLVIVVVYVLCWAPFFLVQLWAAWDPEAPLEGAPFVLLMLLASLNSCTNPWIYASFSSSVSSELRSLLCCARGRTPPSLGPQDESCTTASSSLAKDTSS
as §2

For assay [3], the target named is T1, human V1a receptor. Description: cell-based. Here is the method: The V1a receptor is a G-protein coupled receptor, which upon activation triggers an increase in intracellular calcium mobilization. To evaluate compounds for their functional V1a receptor activity, HEK-293 cells were transfected with the human V1a receptor (V1a-HEK cells). HEK-293 cells were grown in DMEM (Dulbecco's modified Eagle Media) supplemented with 10% FBS and glutamine. HEK-cells were passed biweekly by trypsinization and seeded into 96 well plates at 33,000 cells per well. HEK-293 cells were transfected with human V1a receptor DNA using DMRIE-C reagent from Life Technologies (Carlsbad, Calif.). Stable lines were generated by selecting cells grown in culture media containing geneticin. After growing in Packard Clear-View black 96 well plates for 4-6 days, V1a-HEK cells were loaded with the calcium-sensitive fluorescence dye, FLUO-3 AM. Changes in intracellular calcium mobilization were measured by quantitating intracellular fluorescence using FLIPR (Fluorometric Imaging Plate Reader; Molecular Devices, Sunnyvale, Calif.). Test compounds were first added to the cells and the resulting changes in fluorescence measured to detect receptor agonistic activity. Five minutes later the cells were challenged with vasopressin to test compounds for their antagonistic activity. Receptor antagonists inhibit the ability of vasopressin to stimulate increases in intracellular fluorescence.

Assay [4] deals with T2, human V2 receptor. Description: V2 vasopressin receptor functional activity (cAMP accumulation). On the set-up: expressed in transfected cells; host or cells: HEK-293. It counts as cell-based. Conditions: V2-HEK cells; block of vasopressin-stimulated cAMP accumulation; read-out: V2 (functional) IC50. Here is the method:
The V2 receptor is also a G-protein coupled receptor which when activated induces an increase in cAMP turnover. Antagonism against the V2 receptor is determined by measuring cAMP accumulation in transfected HEK-293 cells expressing the human V-2 receptor (V2-HEK cells). Compounds are tested for their ability to block the stimulatory effects of vasopressin on cAMP accumulation. The cell content of cAMP is measured by radioimmunoassay using NEN flashplates.

The mark [5] stands for this setting: V1 (functional) IC50, V1a-HEK cells, inhibition of vasopressin-stimulated intracellular calcium mobilization.

T1 sequence (P37288 whole entry): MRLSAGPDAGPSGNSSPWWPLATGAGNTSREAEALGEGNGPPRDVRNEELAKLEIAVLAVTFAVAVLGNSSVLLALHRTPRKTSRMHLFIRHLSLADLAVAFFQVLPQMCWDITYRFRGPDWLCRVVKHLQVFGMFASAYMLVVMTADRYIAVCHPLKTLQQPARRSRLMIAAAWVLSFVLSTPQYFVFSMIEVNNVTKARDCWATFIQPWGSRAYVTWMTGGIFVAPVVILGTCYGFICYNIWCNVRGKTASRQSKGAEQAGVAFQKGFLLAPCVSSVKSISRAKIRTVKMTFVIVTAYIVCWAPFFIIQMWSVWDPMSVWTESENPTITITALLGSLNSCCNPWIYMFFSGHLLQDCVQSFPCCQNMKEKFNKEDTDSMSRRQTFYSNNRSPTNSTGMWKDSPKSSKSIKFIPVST

`NN=C1CCCC12CCN(C(=O)c1ccc(NC(=O)c3ccccc3-c3ccccc3)cc1)c1ccccc1C2` (stereo not shown) [Cpd 38, 2-aminoimino-N-[4-(biphen-2-ylcarbonyl)amino-phenylcarbonyl]-spiro[cyclopentane-1,4′-benzo[b]azepane]]: the IC50 was 21 nM at human V1a receptor [1], 24 nM at human V2 receptor [2], less than 30 nM at human V1a receptor [3] (setting [5]) and 40 nM at human V2 receptor [4].

As for `NC1CCCC12CCN(C(=O)c1ccc(NC(=O)c3ccccc3-c3ccccc3)cc1)c1ccccc1C2` (stereo not shown) [Cpd 39, 2-amino-N-[4-(biphen-2-ylcarbonyl)amino-phenylcarbonyl]-spiro[cyclopentane-1,4′-benzo[b]azepane]], the IC50 on human V1a receptor [1] came to 80 nM; at human V2 receptor [2] it was 110 nM; on human V1a receptor [3], 730 nM; on human V2 receptor [4] it was 690 nM.

Regarding `O=C(Nc1ccc(C(=O)N2CC[C@]3(CCCC3=NO)Cc3ccccc32)cc1)c1cc(F)ccc1Cl` [Cpd 45, (S)—N-[4-(2-chloro-5-fluoro-phenylcarbonyl)amino-phenylcarbonyl]-2-hydroxyimino-spiro[cyclopentane-1,4′-benzo[b]azepane]], the inhibition at 0.2 µM was determined as 67% on human V1a receptor [1] (test concentration of 0.2 μM, read-out: V1a binding percent inhibition (in parentheses, where an IC50 value was not obtained)) and 10% at human V2 receptor [2]. For the same compound, the concentration for half-maximal inhibition (IC50) at human V1a receptor [3] (setting [5]) amounted to 570 nM; on human V2 receptor [4], 550 nM.

For `COc1cc(C(=O)N2CCC3(CCCC3=NO)Cc3ccccc32)ccc1NC(=O)c1cc(F)ccc1Cl` (stereo not shown) [Cpd 42, N-[3-methoxy-4-(2-chloro-5-fluoro-phenylcarbonyl)amino-phenylcarbonyl]-2-hydroxyimino-spiro[cyclopentane-1,4′-benzo[b]azepane]], the IC50 turned out to be 12 nM at human V1a receptor [1], 39 nM on human V2 receptor [2], 60 nM on human V1a receptor [3] (setting [5]) and 92 nM on human V2 receptor [4].

As for `NN=C1CCCC12CCN(C(=O)c1ccc(NC(=O)c3cc(F)ccc3Cl)cc1)c1ccccc1C2` (stereo not shown) [Cpd 1, 2-aminoimino-N-[4-(2-chloro-5-fluoro-phenylcarbonyl)amino-phenylcarbonyl]-spiro[cyclopentane-1,4′-benzo[b]azepane]], the IC50 at human V1a receptor [1] worked out at 3 nM; at human V2 receptor [2], 23 nM; on human V1a receptor [3] (setting [5]), 10 nM; on human V2 receptor [4], 54 nM.

Regarding `NCCON=C1CCCC12CCN(C(=O)c1ccc(NC(=O)c3cccc(F)c3)cc1)c1ccccc1C2` (stereo not shown) [Cpd 41, N-[4-(3-fluoro-phenylcarbonyl)amino-phenylcarbonyl]-2-(2-amino-ethoxy)imino-spiro[cyclopentane-1,4′-benzo[b]azepane]], the IC50 at human V1a receptor [1] came out at 8 nM; on human V1a receptor [3], 20 nM; at human V2 receptor [4], 700 nM. Moreover, the inhibition at 0.2 µM at human V2 receptor [2] amounted to 55%.

Regarding `O=C(Nc1ccc(C(=O)N2CCC3(CCCC3=NO)Cc3ccccc32)cc1)c1ccccc1-c1ccccc1` (stereo not shown) [Cpd 37, N-[4-(biphen-2-ylcarbonyl)amino-phenylcarbonyl]-2-hydroxyimino-spiro[cyclopentane-1,4′-benzo[b]azepane]], the IC50 at human V1a receptor [1] is 23 nM; at human V2 receptor [2] it was 27 nM; at human V1a receptor [3] (setting [5]), 30 nM; on human V2 receptor [4], 90 nM.

In the case of `O=C(NN=C1CCCC12CCN(C(=O)c1ccc(NC(=O)c3cc(F)ccc3Cl)cc1)c1ccccc1C2)c1cccnc1` (stereo not shown) [Cpd 4, N-[4-(2-chloro-5-fluoro-phenylcarbonyl)amino-phenylcarbonyl]-2-pyridin-3-ylcarbonylaminoimino-spiro[cyclopentane-1,4′-benzo[b]azepane]], the IC50 worked out at 12 nM on human V1a receptor [1], 62 nM at human V2 receptor [2], 20 nM on human V1a receptor [3] (setting [5]) and 43 nM on human V2 receptor [4].

On to `O=C(Nc1ccc(C(=O)N2CCC3(CCCC3=NO)Cc3ccccc32)cc1)c1cc(F)ccc1Cl` (stereo not shown) [Cpd 44, N-[4-(2-chloro-5-fluoro-phenylcarbonyl)amino-phenylcarbonyl]-2-hydroxyimino-spiro[cyclopentane-1,4′-benzo[b]azepane]], for which the IC50 was found to be 7 nM on human V1a receptor [1], 28 nM on human V2 receptor [2], 20 nM on human V1a receptor [3] (setting [5]) and 66 nM on human V2 receptor [4].

On to `COc1cc(C(=O)N2CCC3(CCCC3=NO)Cc3ccccc32)ccc1NC(=O)c1cccc(F)c1` (stereo not shown) [Cpd 51, N-[3-methoxy-4-(3-fluoro-phenylcarbonyl)amino-phenylcarbonyl]-2-hydroxyimino-spiro[cyclopentane-1,4′-benzo[b]azepane]], for which the values for the IC50 on human V1a receptor [1] and on human V2 receptor [2] were 16 nM and 87 nM, respectively.

With `NCC(=O)NC1CCCC12CCN(C(=O)c1ccc(NC(=O)c3ccccc3-c3ccccc3)cc1)c1ccccc1C2` (stereo not shown) [Cpd 40, 2-(aminomethylcarbonyl)amino-N-[4-(biphen-2-ylcarbonyl)amino-phenylcarbonyl]-spiro[cyclopentane-1,4′-benzo[b]azepane]], the IC50 on human V1a receptor [1] was 23 nM; on human V2 receptor [2], 15 nM; against human V1a receptor [3], 290 nM; on human V2 receptor [4] it was 200 nM.

For the compound `CN(C)C1CCCC12CCN(C(=O)c1ccc(NC(=O)c3cc(F)ccc3Cl)cc1)c1ccccc1C2` (stereo not shown) [Cpd 6, N-[4-(2-chloro-5-fluoro-phenylcarbonyl)amino-phenylcarbonyl]-2-dimethylamino-spiro[cyclopentane-1,4′-benzo[b]azepane]], the figures for the IC50 on human V1a receptor [1], against human V1a receptor [3] and on human V2 receptor [4] were 10 nM, 70 nM and 107 nM, respectively. At human V2 receptor [2], the inhibition at 0.2 µM turned out to be 63%.

As for `O=C(Nc1ccc(C(=O)N2CC[C@@]3(CCCC3=NO)Cc3ccccc32)cc1)c1cc(F)ccc1Cl` [Cpd 7, (R)—N-[4-(2-chloro-5-fluoro-phenylcarbonyl)amino-phenylcarbonyl]-2-hydroxyimino-spiro[cyclopentane-1,4′-benzo[b]azepane]], the IC50 at human V1a receptor [1] is 8 nM; on human V2 receptor [2] it was 28 nM; at human V1a receptor [3] (setting [5]) it was 18 nM; at human V2 receptor [4] it was 24 nM.

With `O=C(Nc1ccc(C(=O)N2CCC3(CCCC3=NNc3ccccn3)Cc3ccccc32)cc1)c1cc(F)ccc1Cl` (stereo not shown) [Cpd 43, N-[4-(2-chloro-5-fluoro-phenylcarbonyl)amino-phenylcarbonyl]-2-pyridin-2-ylaminoimino-spiro[cyclopentane-1,4′-benzo[b]azepane]], the IC50 on human V1a receptor [1] came to 5 nM; on human V2 receptor [2], 56 nM; at human V1a receptor [3] (setting [5]), 80 nM; at human V2 receptor [4], 200 nM.

In the case of `CN(C)N=C1CCCC12CCN(C(=O)c1ccc(NC(=O)c3cc(F)ccc3Cl)cc1)c1ccccc1C2` (stereo not shown) [Cpd 3, N-[4-(2-chloro-5-fluoro-phenylcarbonyl)amino-phenylcarbonyl]-2-dimethylaminoimino-spiro[cyclopentane-1,4′-benzo[b]azepane]], the values for the IC50 on human V1a receptor [1], at human V1a receptor [3] (setting [5]) and at human V2 receptor [4] were 9 nM, 20 nM and 250 nM, respectively. For the same compound, the inhibition at 0.2 µM at human V2 receptor [2] turned out to be 48%.
